Assay results taken from patent publication US5739284A, “Compositions corresponding to a high-affinity glutamate transporter molecule and methods for making and using same” (Brigham and Women's Hospital, Inc., priority 1995, dated 1998).
Where a chain is given by its changes, count along the chain named. Like-named read-outs stand apart in the source and are kept apart here.

Experiments:
[1] = biological target: T1, excitatory amino acid carrier protein (EAAC1) derived from rabbit (Oryctolagus cuniculus, UniProt P31597); test: substrate-evoked currents (two-microelectrode voltage clamp) in oocytes expressing rabbit EAAC1; conditions: 100 μM substrate, -60 mV holding potential, FIG. 7
T1 sequence (P31597 1-524): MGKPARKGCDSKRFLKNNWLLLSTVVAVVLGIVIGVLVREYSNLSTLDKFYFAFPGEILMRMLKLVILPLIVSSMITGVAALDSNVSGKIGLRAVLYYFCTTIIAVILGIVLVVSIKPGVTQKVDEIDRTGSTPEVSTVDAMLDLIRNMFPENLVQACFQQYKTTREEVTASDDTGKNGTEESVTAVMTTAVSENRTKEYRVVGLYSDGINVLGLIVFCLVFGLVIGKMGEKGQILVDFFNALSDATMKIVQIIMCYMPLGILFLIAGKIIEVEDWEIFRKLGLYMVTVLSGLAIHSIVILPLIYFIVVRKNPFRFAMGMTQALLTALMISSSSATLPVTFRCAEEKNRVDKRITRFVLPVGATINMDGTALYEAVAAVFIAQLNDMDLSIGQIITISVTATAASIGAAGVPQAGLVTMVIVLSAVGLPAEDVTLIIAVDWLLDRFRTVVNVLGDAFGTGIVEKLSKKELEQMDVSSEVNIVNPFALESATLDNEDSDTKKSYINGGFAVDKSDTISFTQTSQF
Procedure: (§3) The membrane current was measured in standard bath solution (ND 96) at -60 mV holding potential. Substrates were applied at the bars.
(§4) FIG. 9 graphically depicts the changes in glutamate induced current measured in nanoampere (nA) at concentrations ranging from 1 μM to 1 mM glutamate. The results were fitted to a Michaelis-Menton curve. An Eadie-Hofstee plot is depicted in the inset.
(§5) Xenopus laevis oocytes were injected with excitatory amino acid carrier cRNA derived from rabbit (25 ng/oocyte) and used for two microelectrode voltage clamp experiments. Recordings were performed at -60 mV in regular ND 96 saline (96 mM NaCl, 2 mM KCl, 1.8 mM CaCl2, 1.0 mM MgCl2 and 5 mM Hepes pH 7.4).

[2] = biological target: T1, excitatory amino acid carrier protein (EAAC1) derived from rabbit; test: uptake of 14C-L-glutamate or 14C-L-aspartate by Xenopus oocytes injected with rabbit EAAC1 cRNA; type: cell-based; conditions: carrier protein of Seq. ID No. 4
Procedure: Poly(A)^+ RNA was isolated and injected into collagenase-treated and manually-defolliculated Xenopus laevis oocytes.
All uptakes in this and the following figures were performed with 6-8 oocytes, 3 days after injection. […] For the sodium-free medium, sodium chloride was replaced by Choline-chloride. RNA-injected oocytes were injected with 25 ng cRNA in 50 nl.
The solutions described above were modified to the extent that acetate ion was substituted for chloride ion.

[3] = biological target: T2, rabbit derived excitatory amino acid carrier (Oryctolagus cuniculus, UniProt P31597); test: inhibition of current evoked by L-glutamate in oocytes expressing rabbit EAAC1; type: cell-based
T2 construct: ID No. 4; expressed in transfected cells; host or cells: Xenopus laevis oocytes injected with cRNA (25 ng/oocyte)
T2 sequence (P31597 1-524): T1 sequence (P31597 1-524)
Procedure: (§1) Xenopus laevis oocytes were injected with cRNA (25 ng/oocyte) encoding for the excitatory amino acid carrier protein derived from rabbit as described in Example 1. Electrophysiological measurements were performed 3-4 days after injection using a conventional two-microelectrode voltage clamp method (Axoclamp-2A, Axon Instruments, CA).
The standard bath solution (ND 96) contained 96 mM NaCl, 2 mM KCl, 1.8 mM CaCl2, 1.0 mM MgCl2 and 5 mM HEPES pH 7.4 The recording chamber was perfused with bath solution. Current responses of Xenopus laevis oocytes injected with cRNA coding for the excitatory amino acid carrier protein and fragments thereof to bath applied 100 μM substrates are illustrated in FIG. 7.
Example 7 illustrates the application of the electrophysiological features of the excitatory amino acid carrier protein, derived from rabbit, described in Example 6 in the screening of drugs to enhance or inhibit the protein. The Xenopus laevis oocytes was injected with rabbit derived excitatory amino acid carrier cRNA and processed as described in Example 6. […] Robinson, M. B., Hunter-Ensor, M. & Sinor, J., "Pharmacologically distinct sodium-dependentL-[3H]glutamate transport process in rat brain," Brain Research 544:196-202 (1991).

[4] = biological target: T3, Human High Affinity Glutamate Transporter HEAAC1 (Homo sapiens, UniProt P43005); test: substrate-evoked currents in oocytes expressing human carrier; conditions: for inward currents induced: AAD at 50 μM, DHK up to 1 mM
T3 sequence (P43005 1-524 V96L/K170N/P172A/L260H): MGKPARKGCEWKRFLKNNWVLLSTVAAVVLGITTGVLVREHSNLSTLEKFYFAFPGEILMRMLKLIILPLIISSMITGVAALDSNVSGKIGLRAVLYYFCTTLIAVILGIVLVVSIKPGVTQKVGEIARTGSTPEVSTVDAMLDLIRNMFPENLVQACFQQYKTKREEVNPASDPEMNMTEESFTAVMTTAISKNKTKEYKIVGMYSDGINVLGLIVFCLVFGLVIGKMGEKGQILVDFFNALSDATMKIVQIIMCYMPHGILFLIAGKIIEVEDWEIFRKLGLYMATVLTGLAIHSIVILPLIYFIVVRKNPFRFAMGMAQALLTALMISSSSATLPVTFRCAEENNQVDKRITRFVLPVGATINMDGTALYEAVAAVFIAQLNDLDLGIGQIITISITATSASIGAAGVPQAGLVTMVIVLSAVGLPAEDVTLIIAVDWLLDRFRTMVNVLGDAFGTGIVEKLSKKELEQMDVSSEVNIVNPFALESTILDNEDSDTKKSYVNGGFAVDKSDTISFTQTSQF
From the text: (§2) The glutamate evoked currents were first measured without addition of inhibitor. […] Calculation of KI values was based on the kinetics for competitive inhibition.
Oocytes were used for two-microelectrode voltage-clamping as described above and command potentials were applied and controlled by an IBM-compatible computer via the software CLAMPEX from pCLAMP (version 5.5 Axon Instruments, CA). The oocyte membrane was held at -50 mV and pulsed to the test potential for […] followed by a 1 sec interpulse interval at the holding potential of -50 mV before application of the next pulse. Current was low-pass filtered at […], digitized at 200 μsec and saver on the computer. Steady-state currents were obtained by averaging the current between 72 and 76 msec.

[5] = system: synaptosomal L-glutamate uptake; conditions: Robinson et al. / previously known; cited from earlier work
[6] = biological target: T3, Human High Affinity Glutamate Transporter HEAAC1; test: inhibition of L-glutamate-evoked currents in oocytes expressing human carrier; type: cell-based; parameters: expressed in transfected cells; host or cells: Xenopus laevis oocytes (cRNA injection; human kidney clone K-3); conditions: for IC50 / Ki: HEAAC1; for inhibition of the current induced by L-glutamate: L-glutamate 10-1,000 μM, DHK 1 mM; for order of sensitivity to inhibitors based on IC50 values: current induced by 100 μM L-glutamate; for Ki: based on the kinetics for competitive inhibition
From the text: as §2

[7] = system: excitatory amino acid carrier protein derived from rabbit; test: effect of external K+ on current evoked by L-glutamate; type: cell-based; conditions: 50 μM L-glutamate, 0-50 mM K+, -30 mV, FIG. 10
Procedure: as §1
The bath medium were prepared containing potassium ion concentrations in concentrations ranging from 0 mM-50 mM. The bath media were held at a holding potential of -30 mV, and normalized to the current measured on the same oocyte (the value at 0 mM K^+ is 100%). Consecutive current measurements were made on single oocytes after changing to bath medium containing the appropriate K^+ concentration. […] The bath medium contained z mM KCl (where z=0-50), 50-z mM choline Cl, 50 mM NaCl, 1.8 mM CaCl2, 1.0 mM MgCl2, 10 mM BaCl2, 5 mM HEPES pH 7.4.

[8] = biological target: T4, human excitatory amino acid carrier (Homo sapiens, UniProt P43005); test: voltage dependence of currents mediated by human carrier; type: cell-based
T4 sequence (P43005 1-524): T3 sequence (P43005 1-524 V96L/K170N/P172A/L260H) with L96V, N170K, A172P, H260L
From the text: (§6) Oocytes were used for two-microelectrode voltage-clamping as described above and command potentials were applied and controlled by an IBM-compatible computer via the software CLAMPEX from pCLAMP (version 5.5 Axon Instruments, CA). The oocyte membrane was held at -50 mV and pulsed to the test potential for msec followed by a 1 sec interpulse interval at the holding potential of -50 mV before application of the next pulse. Current was low-pass filtered at 50 kHz, digitized at 200 μsec and saver on the computer. Steady-state currents were obtained by averaging the current between 72 and 76 msec.

[9] = substrate: N[C@@H](CCCC(=O)O)C(=O)O; test: cells, lysate or membranes; conditions: other: HEAAC1, human
[10] = substrate: N[C@H](C(=O)O)[C@H](O)C(=O)O; test: cells, lysate or membranes; conditions: other: HEAAC1, human
From the text: as §6

[11] = substrate: O=C(O)[C@H]1CN[C@H](C(=O)O)C1; test: cells, lysate or membranes; conditions: other: HEAAC1, human
From the text: as §6

[12] = substrate: N[C@@H](CC(=O)O)C(=O)O; test: cells, lysate or membranes; conditions: other: EAAC1, rabbit derived; pH 7.4
Procedure: as §3, §4, §5

[13] = substrate: N[C@@H](CCC(=O)O)C(=O)O; test: cells, lysate or membranes; conditions: pH 7.4
[14] = substrate: N[C@H](CC(=O)O)C(=O)O; test: cells, lysate or membranes; conditions: other: EAAC1, rabbit derived; pH 7.4
Procedure: as §3, §4, §5

[15] = IC50, L-Glu = 100 um, L-Glu = 100 um

Molecule: C=C(C)[C@H]1CN[C@H](C(=O)O)[C@H]1CC(=O)O [kainate]
- amplitude of inward current evoked by substrate [1]: did not induce current

Molecule: NC(=O)CC[C@H](N)C(=O)O [Glutamine]
- activity for glutamine transport [2]: slight activity

Molecule: N[C@@H](Cn1oc(=O)[nH]c1=O)C(=O)O [Quisgualate, quisgualate]
- amplitude of inward current evoked by substrate [1]: small but significant inward current

Molecule: N[C@H](C(=O)O)[C@H](O)C(=O)O (relative stereo) [THA, DL-threo-β-hydroxyaspartate]
- IC50 [3]: 0.0071 mM
- substrate of the carrier / effect on transport [4]: transport substrates
- inward currents induced [4]: large inward currents
- inhibition of synaptosomal L-glutamate uptake [5]: strong inhibitor
- IC50 [6, 15]: 28 ± 0.8 µM
- inhibition of the current induced by L-glutamate [6]: potent inhibitors
- order of sensitivity to inhibitors based on IC50 values [6]: THA>PDC>>AAA>DHK

Molecule: N[C@@H](CCCC(=O)O)C(=O)O [AAD, L-α-aminoadipate]
- IC50 [3]: 0.165 mM
- Ki [6]: ~20 µM
- order of sensitivity to inhibitors based on IC50 values [6]: THA>PDC>>AAA>DHK

Molecule: [K+] [K^+, potassium ion]
- inhibition of L-glutamate evoked current by external K+ [7]: greater degree of inhibition of current at higher K^+ concentration

Molecule: CC(C)[C@H]1CN[C@H](C(=O)O)[C@H]1CC(=O)O [DHK, dihydrokainate]
- IC50 ([3]; rabbit EAAC1, value in mM, read-out: IC50, inhibition of glutamate induced inward currents): > 1 mM
- inward currents induced [4]: did not induce significant currents
- inhibition of synaptosomal L-glutamate uptake [5]: less effective inhibitors
- inhibition of the current induced by L-glutamate [6]: did not inhibit the current efficiently
- order of sensitivity to inhibitors based on IC50 values [6]: THA>PDC>>AAA>DHK
- inhibition at 1000 µM ([6]; read-out: inhibition at 1 mM DHK (IC50)): 6.7%

Molecule: O=C(O)[C@H]1CN[C@H](C(=O)O)C1 [PDC, L-trans-pyrolidine-2,4-dicarboxylate]
- substrate of the carrier / effect on transport [4]: transport substrates
- inward currents induced [4]: large inward currents
- Vmax for the PDC-induced current [8]: markedly reduced
- overall voltage-dependencies of L-glutamate and PDC evoked currents [8]: identical
- Ki [6]: ~1 µM
- IC50 ([6]; IC50, L-Glu = 1 mM, L-Glu = 1 mM): 91 ± 7.2 µM
- IC50 [6, 15]: 74 ± 11 µM
- inhibition of the current induced by L-glutamate [6]: potent inhibitors
- order of sensitivity to inhibitors based on IC50 values [6]: THA>PDC>>AAA>DHK
- maximal transport rate (Vmax) of glutamate uptake ([6]; human carrier): reduces the maximal transport rate (Vmax)
- preference as uptake inhibitor ([6]; human carrier): preferred uptake inhibitor

Molecule: N[C@@H](CCC(=O)O)C(=O)O [L-glutamate]
- voltage dependence of Km for L-glutamate [8]: strongly depended on membrane voltage

B1: Human High Affinity Glutamate Transporter HEAAC1 (Homo sapiens) (protein)
chain: T3 sequence (P43005 1-524 V96L/K170N/P172A/L260H)
- Km [9]: 2400 ± 0.6 µM
- Km [10]: 34 ± 6.4 µM
- Km [11]: 23 ± 3.7 µM

B2: excitatory amino acid carrier protein (EAAC1) derived from rabbit (Oryctolagus cuniculus) (protein)
chain: T1 sequence (P31597 1-524)
- Km [12]: 6.5 µM
- Km ([13]; other: EAAC1, rabbit derived): 12.1 µM
- Km ([13]; other: glutamate-induced current, rabbit EAAC1 in oocytes): 12.2 µM
- Km [14]: 7.5 µM
